Each structure is given as a SMILES string. Converted amounts (≈) assume the structure as drawn.

This passage reports zone of inhibition, Activity and MIC results from ChEMBL document CHEMBL3045806, “Antimicrobial, analgesic, DPPH scavenging activities and molecular docking study of some 1,3,5-triaryl-2-pyrazolines” (2012).

Holding throughout (type): functional
For experiment [1], the system named is Candida albicans. Put plainly: Antimicrobial activity against Candida albicans at 40 ug/ml after 72 hr by agar well diffusion method. Conditions: read-out: IZ. On the technique in general: A growth-free zone around the sample is the usual read-out of agar diffusion tests.
The test system of experiment [2] is Aspergillus niger. Put plainly: Antimicrobial activity against Aspergillus niger at 40 ug/ml after 72 hr by agar well diffusion method. The following applies: read-out: IZ.
The test system of another experiment is Mus musculus. Put plainly: Analgesic activity in Mus musculus Swiss albino (mouse) assessed as protection against acetic acid-induced writhing at 100 mg/kg, po administered 1 hr prior challenge measured after 5 min of challenge for 20 min. (An intraperitoneal irritant provokes the stretching counted in writhing tests.)
Experiment [3] is described as follows: Antioxidant activity assessed as DPPH scavenging activity at 10 ug/ml after 30 min by UV-visible spectrophotometry. (DPPH is a stable violet radical that fades when it is reduced.)
Experiment [4] deals with Klebsiella pneumoniae. Put plainly: Antimicrobial activity against Klebsiella pneumoniae at 40 ug/ml after 24 hr by agar well diffusion method. The following applies: read-out: IZ.
For experiment [5], the system named is Bacillus subtilis. As to the kind of experiment: Antimicrobial activity against Bacillus subtilis after 24 hr by micro dilution method.
Experiment [6] has as its system Bacillus subtilis. As to the kind of experiment: Antimicrobial activity against Bacillus subtilis at 40 ug/ml after 24 hr by agar well diffusion method. Conditions: read-out: IZ.
Experiment [7] relates to Aspergillus niger. Put plainly: Antimicrobial activity against Aspergillus niger after 24 hr by micro dilution method.
Experiment [8] deals with Klebsiella pneumoniae. As to the kind of experiment: Antimicrobial activity against Klebsiella pneumoniae after 24 hr by micro dilution method.
The test system of experiment [9] is Streptococcus pyogenes. Put plainly: Antimicrobial activity against Streptococcus pyogenes after 24 hr by micro dilution method.
The subject of experiment [10] is Streptococcus pyogenes. Put plainly: Antimicrobial activity against Streptococcus pyogenes at 40 ug/ml after 24 hr by agar well diffusion method. The following applies: read-out: IZ.
Experiment [11] deals with Candida albicans. Put plainly: Antimicrobial activity against Candida albicans after 24 hr by micro dilution method.
Experiment [12] relates to Pseudomonas aeruginosa. Put plainly: Antimicrobial activity against Pseudomonas aeruginosa at 40 ug/ml after 24 hr by agar well diffusion method. Conditions: read-out: IZ.
The subject of experiment [13] is Pseudomonas aeruginosa. As to the kind of experiment: Antimicrobial activity against Pseudomonas aeruginosa after 24 hr by micro dilution method.

Consider `OC(Cn1cncn1)(Cn1cncn1)c1ccc(F)cc1F` [FLUCONAZOLE], for which the figures for the zone of inhibition at 40 µg/mL in the experiment with Candida albicans [1] and in the experiment on Aspergillus niger [2] were 23 mm and 24 mm, respectively.

As for `CC(=O)Oc1ccccc1C(=O)O` [ASPIRIN], the Activity in the experiment on Mus musculus was 58.25%.

One may read the MIC as the least concentration at which growth counts as inhibited. Higher therefore signals a less susceptible organism. `Fc1ccc(C2=NN(c3ccccc3)C(c3ccc(F)cc3)C2)cc1` (stereo unspecified): the zone of inhibition at 40 µg/mL with Candida albicans [1] stood at 20 mm; in the experiment with Klebsiella pneumoniae [4], 22 mm; with Bacillus subtilis [6] it was 21 mm; in the experiment on Aspergillus niger [2], 20 mm; with Streptococcus pyogenes [10], 23 mm; with Pseudomonas aeruginosa [12], 20 mm. Moreover, the Activity in the experiment on Mus musculus stood at 49.65%; in [3] it was 51.2%. Further, the minimal inhibitory concentration (MIC) with Bacillus subtilis [5] was found to be 30 mg/L (≈ 89.7 µM); in the experiment with Aspergillus niger [7], 40 mg/L (≈ 120 µM); in the experiment with Klebsiella pneumoniae [8], 30 mg/L (≈ 89.7 µM); with Streptococcus pyogenes [9], 30 mg/L (≈ 89.7 µM); in the experiment on Candida albicans [11], 40 mg/L (≈ 120 µM); in the experiment with Pseudomonas aeruginosa [13], 40 mg/L (≈ 120 µM).

For the compound `O=C(O)c1cn(C2CC2)c2cc(N3CCNCC3)c(F)cc2c1=O` [CIPROFLOXACIN], the zone of inhibition at 40 µg/mL with Klebsiella pneumoniae [4], in the experiment on Bacillus subtilis [6], in the experiment on Streptococcus pyogenes [10] and in the experiment with Pseudomonas aeruginosa [12] was 24 mm in each case.

Regarding `O=C1O[C@H]([C@@H](O)CO)C(O)=C1O`, the Activity in experiment [3] worked out at 69.2%.

In the case of `Cc1ccc(C2=NN(c3ccccc3)C(c3ccc(C)cc3)C2)cc1` (stereo unspecified), the zone of inhibition at 40 µg/mL in the experiment with Candida albicans [1] was 22 mm; with Klebsiella pneumoniae [4], 24 mm; in the experiment on Bacillus subtilis [6], 20 mm; in the experiment on Aspergillus niger [2] it was 24 mm; with Streptococcus pyogenes [10], 22 mm; in the experiment with Pseudomonas aeruginosa [12], 23 mm. For the same compound, the Activity with Mus musculus is 58.16%; in experiment [3], 22.4%. Besides, the MIC in the experiment on Bacillus subtilis [5] was 30 mg/L (≈ 91.9 µM); in the experiment with Aspergillus niger [7], 40 mg/L (≈ 123 µM); against Klebsiella pneumoniae [8], 30 mg/L (≈ 91.9 µM); against Streptococcus pyogenes [9], 20 mg/L (≈ 61.3 µM); against Candida albicans [11] it was 30 mg/L (≈ 91.9 µM); with Pseudomonas aeruginosa [13], 40 mg/L (≈ 123 µM).

On to `c1ccc(-c2ccc(C3=NN(c4ccccc4)C(c4ccc(-c5ccccc5)cc4)C3)cc2)cc1` (stereo unspecified), for which the zone of inhibition at 40 µg/mL was found to be 21 mm in the experiment on Candida albicans [1]; 23 mm in the experiment with Klebsiella pneumoniae [4]; 23 mm with Bacillus subtilis [6]; 22 mm with Aspergillus niger [2]; 21 mm in the experiment on Streptococcus pyogenes [10]; 22 mm in the experiment on Pseudomonas aeruginosa [12]. Besides, the Activity turned out to be 53.1% in the experiment on Mus musculus and 18.2% in experiment [3]. The MIC in the experiment on Bacillus subtilis [5] came out at 40 mg/L (≈ 88.8 µM); in the experiment with Aspergillus niger [7], 40 mg/L (≈ 88.8 µM); with Klebsiella pneumoniae [8], 30 mg/L (≈ 66.6 µM); in the experiment with Streptococcus pyogenes [9], 40 mg/L (≈ 88.8 µM); against Candida albicans [11] it was 40 mg/L (≈ 88.8 µM); in the experiment with Pseudomonas aeruginosa [13] it was 30 mg/L (≈ 66.6 µM).

Regarding `Brc1ccc(C2=NN(c3ccccc3)C(c3ccc(Br)cc3)C2)cc1` (stereo unspecified), the zone of inhibition at 40 µg/mL in the experiment on Candida albicans [1] was 20 mm; in the experiment on Klebsiella pneumoniae [4], 21 mm; in the experiment with Bacillus subtilis [6] it was 23 mm; with Aspergillus niger [2], 20 mm; in the experiment with Streptococcus pyogenes [10], 21 mm; in the experiment on Pseudomonas aeruginosa [12] it was 22 mm. In addition, the Activity with Mus musculus turned out to be 53.75%; in experiment [3] it was 40.3%. The minimum inhibitory concentration (MIC) worked out at 40 mg/L (≈ 87.7 µM) against Bacillus subtilis [5]; 40 mg/L (≈ 87.7 µM) in the experiment on Aspergillus niger [7]; 40 mg/L (≈ 87.7 µM) in the experiment on Klebsiella pneumoniae [8]; 40 mg/L (≈ 87.7 µM) against Streptococcus pyogenes [9]; 20 mg/L (≈ 43.8 µM) against Candida albicans [11]; 30 mg/L (≈ 65.8 µM) in the experiment on Pseudomonas aeruginosa [13].

With `c1ccc(C2=NN(c3ccccc3)C(c3ccccc3)C2)cc1` (stereo unspecified), the zone of inhibition at 40 µg/mL in the experiment with Candida albicans [1] stood at 21 mm; with Klebsiella pneumoniae [4] it was 23 mm; in the experiment with Bacillus subtilis [6], 23 mm; in the experiment on Aspergillus niger [2], 23 mm; in the experiment on Streptococcus pyogenes [10], 23 mm; in the experiment on Pseudomonas aeruginosa [12], 22 mm. In addition, the results for the Activity (in the experiment on Mus musculus; in [3]) were 57.8% and 23.1%, respectively. Moreover, the MIC against Bacillus subtilis [5] was 40 mg/L (≈ 134 µM); against Aspergillus niger [7] it was 30 mg/L (≈ 101 µM); against Klebsiella pneumoniae [8] it was 40 mg/L (≈ 134 µM); in the experiment with Streptococcus pyogenes [9], 40 mg/L (≈ 134 µM); in the experiment on Candida albicans [11] it was 30 mg/L (≈ 101 µM); against Pseudomonas aeruginosa [13] it was 30 mg/L (≈ 101 µM).

Turning to `Clc1ccc(C2=NN(c3ccccc3)C(c3ccc(Cl)cc3)C2)cc1` (stereo unspecified), the zone of inhibition at 40 µg/mL came out at 21 mm in the experiment with Candida albicans [1]; 20 mm in the experiment on Klebsiella pneumoniae [4]; 22 mm with Bacillus subtilis [6]; 22 mm with Aspergillus niger [2]; 24 mm in the experiment with Streptococcus pyogenes [10]; 21 mm with Pseudomonas aeruginosa [12]. Moreover, the Activity in the experiment on Mus musculus was 50%; in [3], 31.8%. In addition, the MIC against Bacillus subtilis [5], with Aspergillus niger [7], in the experiment on Klebsiella pneumoniae [8], in the experiment on Streptococcus pyogenes [9], in the experiment with Candida albicans [11] and against Pseudomonas aeruginosa [13] was 30 mg/L (≈ 81.7 µM) in each case.

Take `COc1ccc(C2=NN(c3ccccc3)C(c3ccc(OC)cc3)C2)cc1` (stereo unspecified): the zone of inhibition at 40 µg/mL worked out at 20 mm in the experiment with Candida albicans [1]; 22 mm with Klebsiella pneumoniae [4]; 21 mm with Bacillus subtilis [6]; 21 mm in the experiment with Aspergillus niger [2]; 23 mm in the experiment with Streptococcus pyogenes [10]; 24 mm with Pseudomonas aeruginosa [12]. In addition, the Activity in the experiment on Mus musculus stood at 58.74%; in experiment [3], 39.6%. The minimal inhibitory concentration (MIC) with Bacillus subtilis [5] came to 40 mg/L (≈ 112 µM); against Aspergillus niger [7] it was 30 mg/L (≈ 83.7 µM); against Klebsiella pneumoniae [8], 30 mg/L (≈ 83.7 µM); in the experiment with Streptococcus pyogenes [9] it was 40 mg/L (≈ 112 µM); against Candida albicans [11], 40 mg/L (≈ 112 µM); against Pseudomonas aeruginosa [13], 30 mg/L (≈ 83.7 µM).
